Values after ≈ are worked out from the molar mass of the structure shown.

Drawing on ChEMBL document CHEMBL5625248, “Identification of unique indolylcyanoethylenyl sulfonylanilines as novel structural scaffolds of potential antibacterial agents” (Eur J Med Chem, 2023), this text covers MIC for 9 compounds.

Assay type in all cases: functional
Assay [1] deals with Staphylococcus aureus. Briefly: Antibacterial activity against methicilin-resistant Staphylococcus aureus N315 assessed as inhibition of bacterial growth incubated for 18 hrs by two fold broth microdilution assay.
Assay [2] has as its system Staphylococcus aureus. Briefly: Antibacterial activity against Staphylococcus aureus ATCC 29213 assessed as inhibition of bacterial growth incubated for 18 hrs by two fold broth microdilution assay. (Dilution methods test growth across graded concentrations, often in twofold steps.)
Assay [3] has as its system Pseudomonas aeruginosa. Briefly: Antibacterial activity against Pseudomonas aeruginosa ATCC 27853 assessed as inhibition of bacterial growth incubated for 18 hrs by two fold broth microdilution assay.
Assay [4] deals with Staphylococcus aureus. Briefly: Antibacterial activity against Staphylococcus aureus ATCC 25923 assessed as inhibition of bacterial growth incubated for 18 hrs by two fold broth microdilution assay.
In assay [5] the test system is Pseudomonas aeruginosa. Briefly: Antibacterial activity against Pseudomonas aeruginosa assessed as inhibition of bacterial growth incubated for 18 hrs by two fold broth microdilution assay.
Assay [6] deals with Escherichia coli. Briefly: Antibacterial activity against Escherichia coli ATCC 25922 assessed as inhibition of bacterial growth incubated for 18 hrs by two fold broth microdilution assay.
The subject of a further assay is Acinetobacter baumannii. Briefly: Antibacterial activity against Acinetobacter baumannii assessed as inhibition of bacterial growth incubated for 18 hrs by two fold broth microdilution assay.
For assay [7], the system named is Staphylococcus aureus. Briefly: Antibacterial activity against Staphylococcus aureus assessed as inhibition of bacterial growth incubated for 18 hrs by two fold broth microdilution assay.
For assay [8], the system named is Escherichia coli. Briefly: Antibacterial activity against Escherichia coli assessed as inhibition of bacterial growth incubated for 18 hrs by two fold broth microdilution assay.
The next assay has as its system Enterococcus faecalis. Briefly: Antibacterial activity against Enterococcus faecalis assessed as inhibition of bacterial growth incubated for 18 hrs by two fold broth microdilution assay.
The next assay has as its system Klebsiella pneumoniae. Briefly: Antibacterial activity against Klebsiella pneumoniae assessed as inhibition of bacterial growth incubated for 18 hrs by two fold broth microdilution assay.

What is called MIC is the lowest concentration found to suppress growth. With `N#C/C(=C\c1c[nH]c2ccccc12)S(=O)(=O)c1ccc(N)cc1`, the MIC in the assay on Staphylococcus aureus [1] was found to be 64 µg/mL (≈ 198 µM); in the assay on Staphylococcus aureus [2], 32 µg/mL (≈ 99 µM); in the assay on Pseudomonas aeruginosa [3], 1 µg/mL (≈ 3.09 µM); in the assay on Staphylococcus aureus [4] it was 128 µg/mL (≈ 396 µM); with Pseudomonas aeruginosa [5], 4 µg/mL (≈ 12.4 µM); in the assay with Escherichia coli [6] it was 4 µg/mL (≈ 12.4 µM). The MIC with Acinetobacter baumannii was determined as 8 µg/mL (≈ 24.7 µM); in the assay with Staphylococcus aureus [7], 32 µg/mL (≈ 99 µM); with Escherichia coli [8], 2 µg/mL (≈ 6.18 µM); in the assay on Enterococcus faecalis, 32 µg/mL (≈ 99 µM); with Klebsiella pneumoniae, 1 µg/mL (≈ 3.09 µM).
On to `CC(=O)Nc1ccc(S(=O)(=O)/C(C#N)=C/c2cn(CC(=O)N3CCOCC3)c3ccccc23)cc1`, for which the minimum inhibitory concentration (MIC) was determined as 16 µg/mL (≈ 32.5 µM) in the assay with Staphylococcus aureus [1]; 2 µg/mL (≈ 4.06 µM) in the assay on Staphylococcus aureus [2]; 256 µg/mL (≈ 520 µM) with Pseudomonas aeruginosa [3]; 64 µg/mL (≈ 130 µM) in the assay with Staphylococcus aureus [4]; 64 µg/mL (≈ 130 µM) with Pseudomonas aeruginosa [5]; 128 µg/mL (≈ 260 µM) with Escherichia coli [6]. The MIC with Acinetobacter baumannii was found to be 128 µg/mL (≈ 260 µM); in the assay on Staphylococcus aureus [7], 256 µg/mL (≈ 520 µM); with Escherichia coli [8], 256 µg/mL (≈ 520 µM); with Enterococcus faecalis, 64 µg/mL (≈ 130 µM); in the assay on Klebsiella pneumoniae it was 128 µg/mL (≈ 260 µM).
As for `CC(=O)Nc1ccc(S(=O)(=O)/C(C#N)=C/c2c[nH]c3ccc([N+](=O)[O-])cc23)cc1`, the MIC in the assay with Staphylococcus aureus [1] stood at 64 µg/mL (≈ 156 µM); in the assay on Staphylococcus aureus [2], 32 µg/mL (≈ 78 µM); in the assay with Pseudomonas aeruginosa [3] it was 32 µg/mL (≈ 78 µM); with Staphylococcus aureus [4], 128 µg/mL (≈ 312 µM); in the assay with Pseudomonas aeruginosa [5] it was 64 µg/mL (≈ 156 µM); in the assay with Escherichia coli [6] it was 64 µg/mL (≈ 156 µM). Further, the minimal inhibitory concentration (MIC) with Acinetobacter baumannii stood at 8 µg/mL (≈ 19.5 µM); with Staphylococcus aureus [7], 32 µg/mL (≈ 78 µM); with Escherichia coli [8] it was 64 µg/mL (≈ 156 µM); in the assay on Enterococcus faecalis, 32 µg/mL (≈ 78 µM); in the assay on Klebsiella pneumoniae it was 64 µg/mL (≈ 156 µM).
As to `N#C/C(=C\c1cn(Cc2ccc(Cl)cc2Cl)c2ccccc12)S(=O)(=O)c1ccc(N)cc1`, the MIC was 256 µg/mL (≈ 531 µM) in the assay with Staphylococcus aureus [1]; 64 µg/mL (≈ 133 µM) with Staphylococcus aureus [2]; 32 µg/mL (≈ 66.3 µM) in the assay with Pseudomonas aeruginosa [3]; 32 µg/mL (≈ 66.3 µM) in the assay on Staphylococcus aureus [4]; 64 µg/mL (≈ 133 µM) in the assay with Pseudomonas aeruginosa [5]; 64 µg/mL (≈ 133 µM) with Escherichia coli [6]. Besides, the minimum inhibitory concentration (MIC) with Acinetobacter baumannii is 16 µg/mL (≈ 33.2 µM); in the assay with Staphylococcus aureus [7] it was 256 µg/mL (≈ 531 µM); in the assay on Escherichia coli [8] it was 256 µg/mL (≈ 531 µM); in the assay with Enterococcus faecalis, 128 µg/mL (≈ 265 µM); in the assay with Klebsiella pneumoniae, 4 µg/mL (≈ 8.29 µM).
As for `C#CCn1cc(/C=C(\C#N)S(=O)(=O)c2ccc(N)cc2)c2ccccc21`, the MIC with Staphylococcus aureus [1] worked out at 2 µg/mL (≈ 5.53 µM); with Staphylococcus aureus [2] it was 2 µg/mL (≈ 5.53 µM); in the assay with Pseudomonas aeruginosa [3], 4 µg/mL (≈ 11.1 µM); with Staphylococcus aureus [4] it was 16 µg/mL (≈ 44.3 µM); with Pseudomonas aeruginosa [5] it was 0.5 µg/mL (≈ 1.38 µM); in the assay with Escherichia coli [6] it was 256 µg/mL (≈ 708 µM). Further, the MIC was 0.5 µg/mL (≈ 1.38 µM) in the assay with Acinetobacter baumannii; 4 µg/mL (≈ 11.1 µM) in the assay with Staphylococcus aureus [7]; 128 µg/mL (≈ 354 µM) in the assay with Escherichia coli [8]; 2 µg/mL (≈ 5.53 µM) in the assay on Enterococcus faecalis; 8 µg/mL (≈ 22.1 µM) in the assay with Klebsiella pneumoniae.
On to `CC(=O)Nc1ccc(S(=O)(=O)/C(C#N)=C/c2c[nH]c3cc(Br)ccc23)cc1`, for which the minimum inhibitory concentration (MIC) in the assay on Staphylococcus aureus [1] came to 64 µg/mL (≈ 144 µM); in the assay on Staphylococcus aureus [2], 32 µg/mL (≈ 72 µM); in the assay with Pseudomonas aeruginosa [3], 16 µg/mL (≈ 36 µM); with Staphylococcus aureus [4], 128 µg/mL (≈ 288 µM); with Pseudomonas aeruginosa [5], 64 µg/mL (≈ 144 µM); in the assay on Escherichia coli [6], 64 µg/mL (≈ 144 µM). Further, the MIC in the assay on Acinetobacter baumannii came out at 16 µg/mL (≈ 36 µM); with Staphylococcus aureus [7], 32 µg/mL (≈ 72 µM); with Escherichia coli [8], 128 µg/mL (≈ 288 µM); in the assay with Enterococcus faecalis it was 32 µg/mL (≈ 72 µM); in the assay on Klebsiella pneumoniae, 4 µg/mL (≈ 9 µM).
For `CCCCCCn1cc(/C=C(\C#N)S(=O)(=O)c2ccc(NC(C)=O)cc2)c2ccccc21`, the MIC in the assay with Staphylococcus aureus [1] came out at 32 µg/mL (≈ 71.2 µM); with Staphylococcus aureus [2], 1 µg/mL (≈ 2.22 µM); in the assay with Pseudomonas aeruginosa [3] it was 8 µg/mL (≈ 17.8 µM); in the assay on Staphylococcus aureus [4], 4 µg/mL (≈ 8.9 µM); in the assay on Pseudomonas aeruginosa [5], 4 µg/mL (≈ 8.9 µM); in the assay with Escherichia coli [6], 8 µg/mL (≈ 17.8 µM). For the same compound, the minimal inhibitory concentration (MIC) with Acinetobacter baumannii stood at 8 µg/mL (≈ 17.8 µM); in the assay on Staphylococcus aureus [7], 256 µg/mL (≈ 569 µM); in the assay on Escherichia coli [8], 8 µg/mL (≈ 17.8 µM); in the assay on Enterococcus faecalis, 4 µg/mL (≈ 8.9 µM); in the assay with Klebsiella pneumoniae, 256 µg/mL (≈ 569 µM).
On to `C#CCn1cc(/C=C(\C#N)S(=O)(=O)c2ccc(NC(C)=O)cc2)c2ccccc21`, for which the MIC amounted to 2 µg/mL (≈ 4.96 µM) with Staphylococcus aureus [1]; 8 µg/mL (≈ 19.8 µM) with Staphylococcus aureus [2]; 2 µg/mL (≈ 4.96 µM) in the assay on Pseudomonas aeruginosa [3]; 4 µg/mL (≈ 9.91 µM) with Staphylococcus aureus [4]; 4 µg/mL (≈ 9.91 µM) with Pseudomonas aeruginosa [5]; 2 µg/mL (≈ 4.96 µM) with Escherichia coli [6]. The MIC was determined as 8 µg/mL (≈ 19.8 µM) in the assay on Acinetobacter baumannii; 2 µg/mL (≈ 4.96 µM) with Staphylococcus aureus [7]; 8 µg/mL (≈ 19.8 µM) in the assay on Escherichia coli [8]; 4 µg/mL (≈ 9.91 µM) in the assay on Enterococcus faecalis; 4 µg/mL (≈ 9.91 µM) in the assay on Klebsiella pneumoniae.
For the compound `CC(=O)Nc1ccc(S(=O)(=O)/C(C#N)=C/c2cn(CC(=O)N3CCCCC3)c3ccccc23)cc1`, the MIC came to 128 µg/mL (≈ 261 µM) in the assay with Staphylococcus aureus [1]; 128 µg/mL (≈ 261 µM) in the assay on Staphylococcus aureus [2]; 256 µg/mL (≈ 522 µM) in the assay with Pseudomonas aeruginosa [3]; 2 µg/mL (≈ 4.08 µM) with Staphylococcus aureus [4]; 8 µg/mL (≈ 16.3 µM) with Pseudomonas aeruginosa [5]; 256 µg/mL (≈ 522 µM) with Escherichia coli [6]. The MIC in the assay on Acinetobacter baumannii came to 64 µg/mL (≈ 130 µM); with Staphylococcus aureus [7], 256 µg/mL (≈ 522 µM); with Escherichia coli [8], 128 µg/mL (≈ 261 µM); in the assay with Enterococcus faecalis, 128 µg/mL (≈ 261 µM); in the assay with Klebsiella pneumoniae, 64 µg/mL (≈ 130 µM).
